Assay type in all cases: cell-based
Assay [1] deals with T1, hNLRP3 (Homo sapiens, UniProt Q96P20).
T1 construct: THP-1 cells were purchased from the American Type Culture Collection; host or cells: THP-1 cells, PMA-differentiated
Put plainly: hNLRP3 agonist assay: IL-1β production in PMA-differentiated THP-1 cells (ELISA). The following applies: IL-1β by ELISA.

In assay [2] the target is T2, TLR7 (Homo sapiens, UniProt Q9NYK1).
T2 sequence (Q9NYK1 27-1049): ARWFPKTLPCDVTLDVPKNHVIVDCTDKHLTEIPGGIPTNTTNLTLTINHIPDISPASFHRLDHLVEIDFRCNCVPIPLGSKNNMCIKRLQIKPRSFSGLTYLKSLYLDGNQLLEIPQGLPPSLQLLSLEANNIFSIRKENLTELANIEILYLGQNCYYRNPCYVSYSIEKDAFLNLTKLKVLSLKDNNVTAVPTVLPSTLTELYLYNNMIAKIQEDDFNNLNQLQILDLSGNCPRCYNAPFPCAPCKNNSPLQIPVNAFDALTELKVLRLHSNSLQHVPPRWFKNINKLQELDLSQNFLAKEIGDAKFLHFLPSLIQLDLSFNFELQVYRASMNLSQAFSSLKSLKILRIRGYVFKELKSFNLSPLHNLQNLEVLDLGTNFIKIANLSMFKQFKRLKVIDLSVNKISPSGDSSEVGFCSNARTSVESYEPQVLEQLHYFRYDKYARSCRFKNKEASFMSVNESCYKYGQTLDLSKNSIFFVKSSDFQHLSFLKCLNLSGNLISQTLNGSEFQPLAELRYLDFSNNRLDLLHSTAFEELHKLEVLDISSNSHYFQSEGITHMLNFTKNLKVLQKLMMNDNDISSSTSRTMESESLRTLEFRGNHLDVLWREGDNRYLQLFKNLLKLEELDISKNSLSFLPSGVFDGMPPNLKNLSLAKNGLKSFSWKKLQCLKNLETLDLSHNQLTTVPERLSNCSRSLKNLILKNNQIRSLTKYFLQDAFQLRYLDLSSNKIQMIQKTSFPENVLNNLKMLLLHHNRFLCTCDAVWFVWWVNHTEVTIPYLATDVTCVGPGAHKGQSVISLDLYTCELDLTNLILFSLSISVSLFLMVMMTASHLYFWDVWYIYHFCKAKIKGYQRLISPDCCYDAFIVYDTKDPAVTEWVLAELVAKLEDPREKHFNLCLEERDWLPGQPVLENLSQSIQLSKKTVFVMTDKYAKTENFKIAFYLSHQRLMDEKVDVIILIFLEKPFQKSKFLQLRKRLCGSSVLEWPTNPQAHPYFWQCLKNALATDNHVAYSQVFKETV
Put plainly: TLR7 EC50 assay.

The target of assay [3] is T3, TLR8 (Homo sapiens, UniProt Q9NR97).
T3 sequence (Q9NR97 27-1041): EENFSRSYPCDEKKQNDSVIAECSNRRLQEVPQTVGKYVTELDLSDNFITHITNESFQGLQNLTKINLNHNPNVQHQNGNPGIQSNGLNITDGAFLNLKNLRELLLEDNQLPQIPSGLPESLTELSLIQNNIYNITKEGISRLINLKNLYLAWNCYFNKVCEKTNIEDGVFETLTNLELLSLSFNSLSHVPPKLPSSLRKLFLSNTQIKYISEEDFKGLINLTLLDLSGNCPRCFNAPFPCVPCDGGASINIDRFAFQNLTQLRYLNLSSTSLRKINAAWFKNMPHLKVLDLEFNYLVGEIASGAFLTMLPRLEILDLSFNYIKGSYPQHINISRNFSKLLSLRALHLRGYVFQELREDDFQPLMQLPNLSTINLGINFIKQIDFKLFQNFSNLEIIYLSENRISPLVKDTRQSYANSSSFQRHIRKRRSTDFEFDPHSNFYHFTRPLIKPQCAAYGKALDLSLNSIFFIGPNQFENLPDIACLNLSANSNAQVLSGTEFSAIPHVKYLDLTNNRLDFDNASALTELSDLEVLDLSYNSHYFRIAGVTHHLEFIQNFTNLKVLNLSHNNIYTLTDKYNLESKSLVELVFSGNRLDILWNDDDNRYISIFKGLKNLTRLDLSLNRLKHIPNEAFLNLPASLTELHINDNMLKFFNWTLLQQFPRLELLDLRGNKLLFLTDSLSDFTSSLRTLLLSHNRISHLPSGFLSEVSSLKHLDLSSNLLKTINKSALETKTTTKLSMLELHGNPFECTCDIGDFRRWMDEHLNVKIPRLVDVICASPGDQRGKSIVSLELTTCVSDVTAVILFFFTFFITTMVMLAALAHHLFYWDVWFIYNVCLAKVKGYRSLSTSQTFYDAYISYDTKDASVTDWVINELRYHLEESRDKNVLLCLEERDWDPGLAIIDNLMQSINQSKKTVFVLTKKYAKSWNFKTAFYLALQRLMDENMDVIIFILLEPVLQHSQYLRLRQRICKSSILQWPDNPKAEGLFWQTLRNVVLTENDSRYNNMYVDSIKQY
Put plainly: TLR8 EC50 assay.

The term EC50 denotes the concentration that produces a half-maximal response. A low value points to an effect from little substance.

T1 sequence (Q96P20 whole entry): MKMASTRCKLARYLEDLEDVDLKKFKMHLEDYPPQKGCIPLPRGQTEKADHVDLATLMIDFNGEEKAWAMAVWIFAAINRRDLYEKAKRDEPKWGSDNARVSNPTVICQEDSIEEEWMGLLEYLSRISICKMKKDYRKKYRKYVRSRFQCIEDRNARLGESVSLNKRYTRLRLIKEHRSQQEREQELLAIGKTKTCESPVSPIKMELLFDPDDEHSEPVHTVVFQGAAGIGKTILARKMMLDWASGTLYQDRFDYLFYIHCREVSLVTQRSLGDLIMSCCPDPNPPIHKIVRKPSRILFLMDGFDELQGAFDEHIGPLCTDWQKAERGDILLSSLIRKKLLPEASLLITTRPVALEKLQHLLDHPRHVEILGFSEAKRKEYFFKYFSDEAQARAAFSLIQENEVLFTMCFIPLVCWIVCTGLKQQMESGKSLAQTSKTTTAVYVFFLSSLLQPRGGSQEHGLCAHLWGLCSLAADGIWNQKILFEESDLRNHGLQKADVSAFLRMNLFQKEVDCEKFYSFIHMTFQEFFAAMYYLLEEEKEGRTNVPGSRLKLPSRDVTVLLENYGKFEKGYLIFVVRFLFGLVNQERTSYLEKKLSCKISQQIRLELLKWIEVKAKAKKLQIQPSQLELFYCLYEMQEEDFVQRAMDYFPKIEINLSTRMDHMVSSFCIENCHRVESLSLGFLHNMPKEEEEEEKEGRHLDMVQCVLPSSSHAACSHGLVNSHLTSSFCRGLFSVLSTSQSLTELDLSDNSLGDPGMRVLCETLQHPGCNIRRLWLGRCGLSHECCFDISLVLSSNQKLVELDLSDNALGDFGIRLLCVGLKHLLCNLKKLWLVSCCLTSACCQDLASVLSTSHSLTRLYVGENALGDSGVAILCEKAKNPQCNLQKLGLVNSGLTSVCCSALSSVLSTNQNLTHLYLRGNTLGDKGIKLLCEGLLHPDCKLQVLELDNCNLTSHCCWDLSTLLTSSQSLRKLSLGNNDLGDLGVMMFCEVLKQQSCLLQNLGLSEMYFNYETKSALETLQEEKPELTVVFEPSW

For `CN(C)c1nc(-c2ccc3c(c2)nc(N)c2nc(CCCO)[nH]c23)cs1` [Compound 177, 3-[4-amino-7-[2-(dimethylamino)-1,3-thiazol-4-yl]-1H-imidazo[4,5-c]quinolin-2-yl]propan-1-ol], the half-maximal effective concentration (EC50) in assay [1] (Table 2, 4 hours) is > 100 µM; in assay [2] (Table 2), > 100 µM; in assay [3] (Table 2), > 100 µM.

As for `Nc1nc2cc(CC(=O)O)ccc2c2[nH]c(CCCO)nc12` [Compound 121], the EC50 in assay [1] (Table 2, 4 hours) is 1 to 20 µM; in assay [2] (Table 2), > 100 µM; in assay [3] (Table 2), > 100 µM.

Take `Nc1nc2cc(-c3cccs3)ccc2c2[nH]c(CCCO)nc12` [Compound 187, 3-(4-amino-7-thiophen-2-yl-1H-imidazo[4,5-c]quinolin-2-yl)propan-1-ol]: the EC50 was ≤ 1 µM in assay [1] (Table 2, 4 hours); > 100 µM in assay [2] (Table 2); > 100 µM in assay [3] (Table 2).

Turning to `Nc1nc2cc(F)c(F)cc2c2[nH]c(CCCO)nc12` [Compound 136], the EC50 in assay [1] (Table 2, 4 hours) is 20 to 100 µM; in assay [2] (Table 2), > 100 µM; in assay [3] (Table 2), > 100 µM.

With `CN1CCC[C@H](c2nc3c(N)nc4ccccc4c3[nH]2)C1` [Compound 138], the EC50 in assay [1] (Table 2, 4 hours) was 20 to 100 µM; in assay [2] (Table 2) it was > 100 µM; in assay [3] (Table 2), > 100 µM.

For the molecule `Cc1ccccc1-c1ccc2c(c1)nc(N)c1nc(CCCO)[nH]c12` [Compound 199, 3-[4-amino-7-(2-methylphenyl)-1H-imidazo[4,5-c]quinolin-2-yl]propan-1-ol], the half-maximal effective concentration (EC50) is > 100 µM in assay [1] (Table 2, 4 hours); > 100 µM in assay [2] (Table 2); > 100 µM in assay [3] (Table 2).

Regarding `Nc1nc2cc(-c3ccccc3Cl)ccc2c2[nH]c(CCCO)nc12` [Compound 200, 3-[4-amino-7-(2-chlorophenyl)-1H-imidazo[4,5-c]quinolin-2-yl]propan-1-ol], the concentration for a half-maximal effect (EC50) was > 100 µM in assay [1] (Table 2, 4 hours); > 100 µM in assay [2] (Table 2); > 100 µM in assay [3] (Table 2).

Regarding `Nc1nc2cc(-n3cccn3)ccc2c2[nH]c(CCCO)nc12` [Compound 178, 3-(4-amino-7-pyrazol-1-yl-1H-imidazo[4,5-c]quinolin-2-yl)propan-1-ol], the concentration for a half-maximal effect (EC50) in assay [1] (Table 2, 4 hours) was ≤ 1 µM; in assay [2] (Table 2), > 100 µM; in assay [3] (Table 2), 20 to 100 µM.

`Nc1nc2ccccc2c2[nH]c(C3CCNCC3)nc12` [Compound 224]: the half-maximal effective concentration (EC50) in assay [1] (Table 2, 4 hours) is 20 to 100 µM; in assay [2] (Table 2), > 100 µM; in assay [3] (Table 2) it was > 100 µM.

In the case of `Cc1cc(-c2ccc3c(c2)nc(N)c2nc(CCCOCc4ccccc4)[nH]c23)n(C)n1` [Compound 150, 7-(2,5-dimethylpyrazol-3-yl)-2-(3-phenylmethoxypropyl)-1H-imidazo[4,5-c]quinolin-4-amine], the EC50 in assay [1] (Table 2, 4 hours) is > 100 µM; in assay [2] (Table 2) it was > 100 µM; in assay [3] (Table 2) it was > 100 µM.

For the molecule `Nc1nc2cc(NC(=O)c3ccccc3)ccc2c2[nH]c(CCCO)nc12` [Compound 180, N-[4-amino-2-(3-hydroxypropyl)-1H-imidazo[4,5-c]quinolin-7-yl]benzamide], the concentration giving a half-maximal response (EC50) in assay [1] (Table 2, 4 hours) is > 100 µM; in assay [2] (Table 2) it was > 100 µM; in assay [3] (Table 2), > 100 µM.

Take `Cc1cc(-c2ccc3c(c2)nc(N)c2nc(CCCO)[nH]c23)n(C)n1` [Compound 151, 3-[4-amino-7-(2,5-dimethylpyrazol-3-yl)-1H-imidazo[4,5-c]quinolin-2-yl]propan-1-ol]: the concentration for a half-maximal effect (EC50) in assay [1] (Table 2, 4 hours) is 1 to 20 µM; in assay [2] (Table 2), > 100 µM; in assay [3] (Table 2), > 100 µM.

In the case of `CC(C)(C)OC(=O)NC1CCC(c2nc3c(N)nc4cc(Br)ccc4c3[nH]2)CC1` (stereo not drawn) [Compound 110], the EC50 is 1 to 20 µM in assay [1] (Table 2, 4 hours); > 100 µM in assay [2] (Table 2); > 100 µM in assay [3] (Table 2).

Turning to `Nc1nc2ccccc2c2[nH]c([C@H]3C[C@H](O)C3)nc12` [Compound 133], the concentration for a half-maximal effect (EC50) was 20 to 100 µM in assay [1] (Table 2, 4 hours); > 100 µM in assay [2] (Table 2); > 100 µM in assay [3] (Table 2).

For the molecule `Nc1nc2ccccc2c2[nH]c(CCCO)nc12` [Compound 101, 3-[4-amino-1H-imidazo[4,5-c]quinolin-2-yl]propan-1-ol], the EC50 in assay [1] (Table 1, 4 hours) was in the range of 20 to 100 µM; in assay [2] (Table 1), 20 to 100 µM; in assay [3] (Table 1) it was 20 to 100 µM.

With `Nc1nc2cc(N3CCCC3=O)ccc2c2[nH]c(CCCO)nc12` [Compound 183, 1-[4-amino-2-(3-hydroxypropyl)-1H-imidazo[4,5-c]quinolin-7-yl]pyrrolidin-2-one], the concentration giving a half-maximal response (EC50) in assay [1] (Table 2, 4 hours) was 20 to 100 µM; in assay [2] (Table 2) it was > 100 µM; in assay [3] (Table 2), > 100 µM.

Take `Nc1nc2cc(Br)c(F)cc2c2[nH]c(CCCO)nc12` [Compound 118]: the EC50 is 1 to 20 µM in assay [1] (Table 2, 4 hours); > 100 µM in assay [2] (Table 2); > 100 µM in assay [3] (Table 2).

With `Cn1c(CCCO)nc2c3ccc(-n4cccn4)cc3nc(N)c21` [Compound 113], the EC50 in assay [1] (Table 2, 4 hours) is 1 to 20 µM; in assay [2] (Table 2), > 100 µM; in assay [3] (Table 2), > 100 µM.

As to `COc1cccc(-c2ccc3c(c2)nc(N)c2nc(CCCOCc4ccccc4)[nH]c23)n1` [Compound 247], the concentration for a half-maximal effect (EC50) in assay [1] (Table 2, 4 hours) was 1 to 20 µM; in assay [2] (Table 2), > 100 µM; in assay [3] (Table 2), > 100 µM.

As to `Nc1nc2cc(-c3cncnc3)ccc2c2[nH]c(CCCO)nc12` [Compound 188, 3-(4-amino-7-pyrimidin-5-yl-1H-imidazo[4,5-c]quinolin-2-yl)propan-1-ol], the EC50 in assay [1] (Table 2, 4 hours) was 20 to 100 µM; in assay [2] (Table 2) it was > 100 µM; in assay [3] (Table 2), > 100 µM.

Regarding `CC(C)(C)OC(=O)N1CCC(c2nc3c(N)nc4cc(-n5cccn5)ccc4c3[nH]2)CC1` [Compound 218], the concentration for a half-maximal effect (EC50) was ≤ 1 µM in assay [1] (Table 2, 4 hours); > 100 µM in assay [2] (Table 2); > 100 µM in assay [3] (Table 2).

As for `CC(=O)NCCCn1c(C2CCN(C(=O)c3ccccc3)CC2)nc2c(N)nc3cc(Br)ccc3c21` [Compound 227], the EC50 is 20 to 100 µM in assay [1] (Table 2, 4 hours); > 100 µM in assay [2] (Table 2); > 100 µM in assay [3] (Table 2).

For `CCCn1cc(-c2ccc3c(c2)nc(N)c2nc(CCCOCc4ccccc4)[nH]c23)cn1` [Compound 152, 2-(3-phenylmethoxypropyl)-7-(1-propylpyrazol-4-yl)-1H-imidazo[4,5-c]quinolin-4-amine], the half-maximal effective concentration (EC50) is 20 to 100 µM in assay [1] (Table 2, 4 hours); > 100 µM in assay [2] (Table 2); > 100 µM in assay [3] (Table 2).

As for `Cc1ncc(-c2ccc3c(c2)nc(N)c2nc(CCCOCc4ccccc4)[nH]c23)cn1` [Compound 154, 7-(2-methylpyrimidin-5-yl)-2-(3-phenylmethoxypropyl)-1H-imidazo[4,5-c]quinolin-4-amine], the half-maximal effective concentration (EC50) in assay [1] (Table 2, 4 hours) was 1 to 20 µM; in assay [2] (Table 2), > 100 µM; in assay [3] (Table 2) it was > 100 µM.

Regarding `Nc1nc2cc(-c3cccnc3F)ccc2c2[nH]c(CCCO)nc12` [Compound 158, 3-[4-amino-7-(2-fluoropyridin-3-yl)-1H-imidazo[4,5-c]quinolin-2-yl]propan-1-ol], the EC50 was 1 to 20 µM in assay [1] (Table 2, 4 hours); > 100 µM in assay [2] (Table 2); > 100 µM in assay [3] (Table 2).

For the origin of these results see patent US11072612B2, “NLRP3 modulators” (INNATE TUMOR IMMUNITY, INC., priority 2016, dated 2021).
